In ChEMBL document CHEMBL1126540, “Synthesis and evaluation of 3-carboxymethyl steroids as inhibitors of human prostatic steroid 5-reductase” (Bioorg Med Chem Lett, 1993):

Experiment: Inhibition of Human prostatic Steroid 5-alpha-reductase
Details: read-out: Ki app

Ki [µM] | Structure (SMILES)
0.04 | CC(C)N(C(=O)[C@H]1CC[C@H]2[C@@H]3CCc4cc(C(F)(F)C(=O)O)ccc4[C@H]3CC[C@]12C)C(C)C
0.29 | CC(C)N(C(=O)[C@H]1CC[C@H]2[C@@H]3CCc4cc(CCC(=O)O)ccc4[C@H]3CC[C@]12C)C(C)C
> 5 | CC(C)N(C(=O)[C@H]1CC[C@H]2[C@@H]3CCc4cc(CS(=O)(=O)O)ccc4[C@H]3CC[C@]12C)C(C)C
0.74 | CC(C)N(C(=O)[C@H]1CC[C@H]2[C@@H]3CCc4cc(CP(=O)(O)O)ccc4[C@H]3CC[C@]12C)C(C)C
0.15 | CC(C)N(C(=O)[C@H]1CC[C@H]2[C@@H]3CCc4cc(C(=O)C(=O)O)ccc4[C@H]3CC[C@]12C)C(C)C
0.45 | CC(C)N(C(=O)[C@H]1CCC2C3CC=C4C=C(CC(=O)O)CC[C@]4(C)C3CC[C@@]21C)C(C)C (some centres undefined)

Continued, compound first:

Structure (SMILES) | Ki [µM]
CC(C)N(C(=O)[C@H]1CC[C@H]2[C@@H]3CCc4cc(CC(=O)O)ccc4[C@H]3CC[C@]12C)C(C)C | 0.02
CC(C)N(C(=O)[C@H]1CCC2C3CC=C4C=C(C(=O)O)CC[C@]4(C)C3CC[C@@]21C)C(C)C (some centres undefined) | 0.007
CC(C)N(C(=O)[C@H]1CCC2C3CC[C@H]4CC(CC(=O)O)=CC[C@]4(C)C3CC[C@@]21C)C(C)C (some centres undefined) | 0.04
CC(C)N(C(=O)[C@H]1CCC2C3CC[C@H]4C=C(CC(=O)O)CC[C@]4(C)C3CC[C@@]21C)C(C)C (some centres undefined) | 0.085
CC(C)N(C(=O)[C@H]1CC[C@H]2[C@@H]3CC[C@H]4C/C(=C/C(=O)O)CC[C@]4(C)[C@H]3CC[C@]12C)C(C)C | > 5
CC(C)N(C(=O)[C@H]1CCC2C3CCC4=C/C(=C\C(=O)O)CC[C@]4(C)C3CC[C@@]21C)C(C)C (some centres undefined) | > 5
CC(C)N(C(=O)[C@H]1CCC2C3CC[C@H]4C=C(C(=O)O)CC[C@]4(C)C3CC[C@@]21C)C(C)C (some centres undefined) | 0.03
CC(C)N(C(=O)[C@H]1CCC2C3CCC4=C/C(=C/C(=O)O)CC[C@]4(C)C3CC[C@@]21C)C(C)C (some centres undefined) | > 5
